In ChEMBL document CHEMBL4387782, “A new approach to procyanidins synthesis with potent anti-adipogenic effects” (Bioorg Med Chem Lett, 2019):
Activity calls are given as the source filed them. The calls are words filed in the database; no cut-off is given here.

Key:
[1] = target: T1, Pancreatic triacylglycerol lipase (Sus scrofa, UniProt P00591); assay: Inhibition of porcine pancreatic lipase using pNPB as substrate measured after 30 mins
T1 sequence (P00591 whole entry): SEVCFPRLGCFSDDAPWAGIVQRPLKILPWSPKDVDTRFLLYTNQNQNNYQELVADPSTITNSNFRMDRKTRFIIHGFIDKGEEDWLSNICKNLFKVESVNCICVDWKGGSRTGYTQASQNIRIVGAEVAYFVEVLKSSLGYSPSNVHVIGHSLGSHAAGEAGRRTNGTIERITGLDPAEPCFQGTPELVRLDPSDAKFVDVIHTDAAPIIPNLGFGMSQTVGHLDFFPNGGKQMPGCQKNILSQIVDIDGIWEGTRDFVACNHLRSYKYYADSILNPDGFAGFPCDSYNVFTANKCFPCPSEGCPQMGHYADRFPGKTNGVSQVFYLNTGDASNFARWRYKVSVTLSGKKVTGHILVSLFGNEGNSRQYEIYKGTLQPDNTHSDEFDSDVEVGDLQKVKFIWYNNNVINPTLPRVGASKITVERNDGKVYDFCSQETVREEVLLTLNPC

3T3-L1 [2] = assay: Anti-adipogenic activity in mouse 3T3L1 preadipocytes assessed as decrease in lipid accumulation at 5 uM incubated for 8 days in differentiation media by Oil Red O staining based ELISA relative to control; type: functional; parameters: scale not given: the % may be the effect or the level left
3T3-L1 [3] = assay: Anti-adipogenic activity in mouse 3T3L1 preadipocytes assessed as decrease in lipid accumulation at 2.5 uM incubated for 8 days in differentiation media by Oil Red O staining based ELISA relative to control; type: functional; parameters: scale not given: the % may be the effect or the level left
3T3-L1 [4] = assay: Inhibition of cell differentiation in mouse 3T3L1 cells assessed as reduction in pre-adipocyte differentiation into matured adipocytes at 2.5 to 10 uM incubated for 8 days in differentiation media by oil red O staining based method; type: functional
[5] = Cytotoxicity against mouse 3T3L1 cells assessed as reduction in cell viability after 48 hrs by sulforhodamine B assay; type: cell-based; details: 3T3-L1 cells
3T3-L1 [6] = assay: Anti-adipogenic activity in mouse 3T3L1 preadipocytes assessed as decrease in lipid accumulation at 10 uM incubated for 8 days in differentiation media by Oil Red O staining based ELISA relative to control; type: functional; parameters: scale not given: the % may be the effect or the level left
3T3-L1 [7] = assay: Cytotoxicity against mouse 3T3L1 cells assessed as effect on cell viability up to 50 uM by MTT assay; type: cell-based
[8] = target: T1, Pancreatic triacylglycerol lipase; assay: Inhibition of porcine pancreatic lipase using pNPB as substrate measured after 30 mins using plasma treated sample

Structure (SMILES)	IC50 [1] [µM]	Activity (3T3-L1 [2]) [%]	Activity (3T3-L1 [3]) [%]	inhibition (3T3-L1 [4])	MNTC at 48 h [5] [µM]	Activity (3T3-L1 [6]) [%]	Activity (3T3-L1 [7])	IC50 [8] [µM]
Oc1ccc([C@H]2Oc3c(Cc4c(O)c(Cc5c(O)c(Cc6c(O)cc(O)c7c6O[C@H](c6ccc(O)c(O)c6)[C@@H](O)C7)c(O)c6c5O[C@H](c5ccc(O)c(O)c5)[C@@H](O)C6)c5c(c4O)C[C@H](O)[C@@H](c4ccc(O)c(O)c4)O5)c(O)cc(O)c3C[C@@H]2O)cc1O	18.8	52.1	40.1	Active	50	67.2	Non-Toxic	
Oc1ccc([C@H]2Oc3cc(O)c(Cc4c(O)cc(O)c5c4O[C@H](c4ccc(O)c(O)c4)[C@@H](O)C5)c(O)c3C[C@@H]2O)cc1O	102				50		Non-Toxic	
Oc1ccc([C@H]2Oc3c(Cc4c(O)c(Cc5c(O)cc(O)c6c5O[C@H](c5ccc(O)c(O)c5)[C@@H](O)C6)c5c(c4O)C[C@H](O)[C@@H](c4ccc(O)c(O)c4)O5)c(O)cc(O)c3C[C@@H]2O)cc1O	45.9			Active	50		Non-Toxic	
Oc1ccc([C@H]2Oc3cc(O)c(Cc4c(O)cc5c(c4O)C[C@H](O)[C@@H](c4ccc(O)c(O)c4)O5)c(O)c3C[C@@H]2O)cc1O	78.7			Active	50		Non-Toxic	
Oc1ccc([C@H]2Oc3c(Cc4c(O)cc(O)c5c4O[C@H](c4ccc(O)c(O)c4)[C@@H](O)C5)c(O)cc(O)c3C[C@@H]2O)cc1O	110				50		Non-Toxic	
Oc1cc(O)c2c(c1)O[C@H](c1ccc(O)c(O)c1)[C@@H](O)C2 [CIANIDANOL]	> 500							340
